Measured values reported in the supplement of paper PMC11208160.

Assay: recombinant UMI read abundance after kanamycin selection (control-corrected) (log10(CPM+1)); higher = more efficient recombination; extreme values may be limits of the assay; sequences stand for … in AGTGCAGAGAAAATCGGCCAGTTTTCTCTGCCTGCAGTCCGCATGCCGTGGGACCCCTTGGGTTCTAACCTGTTGCCTAGATTTATGCAGCGGACTGCCTTTCTCCCAAAGTGATAAACCGG…AGGTTGGTTTCACT; site = the 11-nt donor
In short: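 Sequenced counts of recombinant UMIs were turned into CPM, averaged across replicates and scaled with control-derived factors. The reported figure is log10(CPM+1). Those UMIs, each 12 nt long, tagged donor and donor-binding-loop pairs on a plasmid with a promoterless kanamycin gene, screened as a pool in Escherichia coli with IPTG (0.07 mM) plus kanamycin or without selection.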
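Also: IS621 bridge recombinase in Escherichia coli cells against a fixed T5 target plasmid.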

Sequence: CGTTAGACATGGACCGGTTTTCCCGGTAATCCGTATTTGAT (site CGTTAGACTCT)
- recombinant UMI read abundance (log10): 0.00897

Sequence: CGTTAGACATGGACCGGTTTTCCCGGTAATCCGTATTTGAT (site CGTTAGACTGT)
- recombinant UMI read abundance (log10): 0

Sequence: CGTTAGACATGGACCGGTTTTCCCGGTAATCCGTATTTGAT (site CGTTAGACTTT)
- recombinant UMI read abundance (log10): 0.0167

Sequence: CGTTATCCATGGACCGGTTTTCCCGGTAATCCGTATTTGCG (site CGTTATCCTCG)
- recombinant UMI read abundance (log10): 0.766

Sequence: CGTTCCACATGGACCGGTTTTCCCGGTAATCCGTATTTGTG (site CGTTCCACTCA)
- recombinant UMI read abundance (log10): 0.0103

Sequence: CGTTGACCATGGACCGGTTTTCCCGGTAATCCGTATTTGGA (site CGTTGACCTTC)
- recombinant UMI read abundance (log10): 0.0127

Sequence: CGTTGATCATGGACCGGTTTTCCCGGTAATCCGTATTTGCT (site CGATCATCTAG)
- recombinant UMI read abundance (log10): 0.00695

Sequence: CGTTGATCATGGACCGGTTTTCCCGGTAATCCGTATTTGCT (site CGTTGATCTAG)
- recombinant UMI read abundance (log10): 2.78

Sequence: CGTTGGTCATGGACCGGTTTTCCCGGTAATCCGTATTTGCA (site CGTTGGTCTTG)
- recombinant UMI read abundance (log10): 1.29

Sequence: CGTTTCGCATGGACCGGTTTTCCCGGTAATCCGTATTTGGA (site CGTTTCGCTTC)
- recombinant UMI read abundance (log10): 0.0198

Sequence: CGTTTGGCATGGACCGGTTTTCCCGGTAATCCGTATTTGGT (site CGTTTGGCTAA)
- recombinant UMI read abundance (log10): 0.0435

Sequence: CGTTTGGCATGGACCGGTTTTCCCGGTAATCCGTATTTGGT (site CGTTTGGCTAC)
- recombinant UMI read abundance (log10): 1.31

Sequence: CGTTTGGCATGGACCGGTTTTCCCGGTAATCCGTATTTGGT (site CGTTTGGCTAG)
- recombinant UMI read abundance (log10): 0.00668

Sequence: CGTTTGGCATGGACCGGTTTTCCCGGTAATCCGTATTTGGT (site CGTTTGGCTAT)
- recombinant UMI read abundance (log10): 0.959

Sequence: CGTTTGGCATGGACCGGTTTTCCCGGTAATCCGTATTTGTT (site CGTTTGGCTAA)
- recombinant UMI read abundance (log10): 0.693

Sequence: CGTTTGGCATGGACCGGTTTTCCCGGTAATCCGTATTTGTT (site CGTTTGGCTAC)
- recombinant UMI read abundance (log10): 0.0131

Sequence: CGTTTGGCATGGACCGGTTTTCCCGGTAATCCGTATTTGTT (site CGTTTGGCTAG)
- recombinant UMI read abundance (log10): 0.989

Sequence: CGTTTGGCATGGACCGGTTTTCCCGGTAATCCGTATTTGTT (site CGTTTGGCTAT)
- recombinant UMI read abundance (log10): 0.033

Sequence: CGTTTGTCATGGACCGGTTTTCCCGGTAATCCGTATTTGCT (site CGTTTGACTAG)
- recombinant UMI read abundance (log10): 0

Sequence: CGTTTGTCATGGACCGGTTTTCCCGGTAATCCGTATTTGCT (site CGTTTGCCTAG)
- recombinant UMI read abundance (log10): 0

Sequence: CGTTTGTCATGGACCGGTTTTCCCGGTAATCCGTATTTGCT (site CGTTTGGCTAG)
- recombinant UMI read abundance (log10): 0

Sequence: CGTTTGTCATGGACCGGTTTTCCCGGTAATCCGTATTTGCT (site CGTTTGTCTAG)
- recombinant UMI read abundance (log10): 1.92

Sequence: CGTTTTGCATGGACCGGTTTTCCCGGTAATCCGTATTTGCT (site CGTTTAGCTAG)
- recombinant UMI read abundance (log10): 0

Sequence: CGTTTTGCATGGACCGGTTTTCCCGGTAATCCGTATTTGCT (site CGTTTCGCTAG)
- recombinant UMI read abundance (log10): 0

Sequence: CGTTTTGCATGGACCGGTTTTCCCGGTAATCCGTATTTGCT (site CGTTTGGCTAG)
- recombinant UMI read abundance (log10): 0

Sequence: CGTTTTGCATGGACCGGTTTTCCCGGTAATCCGTATTTGCT (site CGTTTTGCTAG)
- recombinant UMI read abundance (log10): 0.543

Sequence: CTAAAAGCATGGACCGGTTTTCCCGGTAATCCGTATTTGGC (site CTAAAAGCTGC)
- recombinant UMI read abundance (log10): 0

Sequence: CTAAAATCATGGACCGGTTTTCCCGGTAATCCGTATTTGAC (site CTAAAATCTGT)
- recombinant UMI read abundance (log10): 2.03

Sequence: CTAAAATCATGGACCGGTTTTCCCGGTAATCCGTATTTGAC (site CTAGTATCTGT)
- recombinant UMI read abundance (log10): 0.0803

Sequence: CTAAGAACATGGACCGGTTTTCCCGGTAATCCGTATTTGAA (site CTAAGAACTTT)
- recombinant UMI read abundance (log10): 2.44

Sequence: CTAAGGCCATGGACCGGTTTTCCCGGTAATCCGTATTTGAC (site ATAAGGCCTGT)
- recombinant UMI read abundance (log10): 0

Sequence: CTAAGGCCATGGACCGGTTTTCCCGGTAATCCGTATTTGAC (site CTAAGGCCTGT)
- recombinant UMI read abundance (log10): 0.577

Sequence: CTAAGGCCATGGACCGGTTTTCCCGGTAATCCGTATTTGAC (site GTAAGGCCTGT)
- recombinant UMI read abundance (log10): 0

Sequence: CTAAGGCCATGGACCGGTTTTCCCGGTAATCCGTATTTGAC (site TTAAGGCCTGT)
- recombinant UMI read abundance (log10): 0

Sequence: CTAATAACATGGACCGGTTTTCCCGGTAATCCGTATTTGGA (site CTAATAACTTC)
- recombinant UMI read abundance (log10): 2.05

Sequence: CTAATAACATGGACCGGTTTTCCCGGTAATCCGTATTTGGA (site CTACTAACTTC)
- recombinant UMI read abundance (log10): 0.337

Sequence: CTAATAACATGGACCGGTTTTCCCGGTAATCCGTATTTGGA (site CTAGTAACTTC)
- recombinant UMI read abundance (log10): 0.0598

Sequence: CTAATAACATGGACCGGTTTTCCCGGTAATCCGTATTTGGA (site CTATTAACTTC)
- recombinant UMI read abundance (log10): 1.14

Sequence: CTAATTACATGGACCGGTTTTCCCGGTAATCCGTATTTGTG (site CTAATTACTCA)
- recombinant UMI read abundance (log10): 0.859

Sequence: CTACCGTCATGGACCGGTTTTCCCGGTAATCCGTATTTGGG (site CTACCGTCTCC)
- recombinant UMI read abundance (log10): 0.901

Sequence: CTACCTACATGGACCGGTTTTCCCGGTAATCCGTATTTGAG (site CTACCTACTCT)
- recombinant UMI read abundance (log10): 1.04

Sequence: CTACCTACATGGACCGGTTTTCCCGGTAATCCGTATTTGAG (site CTCCCTACTCT)
- recombinant UMI read abundance (log10): 0.0123

Sequence: CTACCTACATGGACCGGTTTTCCCGGTAATCCGTATTTGAG (site CTGCCTACTCT)
- recombinant UMI read abundance (log10): 0.00249

Sequence: CTACCTACATGGACCGGTTTTCCCGGTAATCCGTATTTGAG (site CTTCCTACTCT)
- recombinant UMI read abundance (log10): 0.0155

Sequence: CTACTAACATGGACCGGTTTTCCCGGTAATCCGTATTTGAA (site CTACTAACTTA)
- recombinant UMI read abundance (log10): 0.909

Sequence: CTACTAACATGGACCGGTTTTCCCGGTAATCCGTATTTGAA (site CTACTAACTTC)
- recombinant UMI read abundance (log10): 0.291

Sequence: CTACTAACATGGACCGGTTTTCCCGGTAATCCGTATTTGAA (site CTACTAACTTG)
- recombinant UMI read abundance (log10): 0

Sequence: CTACTAACATGGACCGGTTTTCCCGGTAATCCGTATTTGAA (site CTACTAACTTT)
- recombinant UMI read abundance (log10): 2.27

Sequence: CTACTAACATGGACCGGTTTTCCCGGTAATCCGTATTTGGA (site ATACTAACTTC)
- recombinant UMI read abundance (log10): 0.387

Sequence: CTACTAACATGGACCGGTTTTCCCGGTAATCCGTATTTGGA (site CAACTAACTTC)
- recombinant UMI read abundance (log10): 0.0111

Sequence: CTACTAACATGGACCGGTTTTCCCGGTAATCCGTATTTGGA (site CCACTAACTTC)
- recombinant UMI read abundance (log10): 0.567

Sequence: CTACTAACATGGACCGGTTTTCCCGGTAATCCGTATTTGGA (site CGACTAACTTC)
- recombinant UMI read abundance (log10): 0.339

Sequence: CTACTAACATGGACCGGTTTTCCCGGTAATCCGTATTTGGA (site CTAATAACTTC)
- recombinant UMI read abundance (log10): 1.38

Sequence: CTACTAACATGGACCGGTTTTCCCGGTAATCCGTATTTGGA (site CTACAAACTTC)
- recombinant UMI read abundance (log10): 0.00657

Sequence: CTACTAACATGGACCGGTTTTCCCGGTAATCCGTATTTGGA (site CTACCAACTTC)
- recombinant UMI read abundance (log10): 0.307

Sequence: CTACTAACATGGACCGGTTTTCCCGGTAATCCGTATTTGGA (site CTACGAACTTC)
- recombinant UMI read abundance (log10): 0.00735

Sequence: CTACTAACATGGACCGGTTTTCCCGGTAATCCGTATTTGGA (site CTACTAACTAC)
- recombinant UMI read abundance (log10): 0.0107

Sequence: CTACTAACATGGACCGGTTTTCCCGGTAATCCGTATTTGGA (site CTACTAACTCC)
- recombinant UMI read abundance (log10): 0.516

Sequence: CTACTAACATGGACCGGTTTTCCCGGTAATCCGTATTTGGA (site CTACTAACTGC)
- recombinant UMI read abundance (log10): 0

Sequence: CTACTAACATGGACCGGTTTTCCCGGTAATCCGTATTTGGA (site CTACTAACTTA)
- recombinant UMI read abundance (log10): 1.4

Sequence: CTACTAACATGGACCGGTTTTCCCGGTAATCCGTATTTGGA (site CTACTAACTTC)
- recombinant UMI read abundance (log10): 1.69

Sequence: CTACTAACATGGACCGGTTTTCCCGGTAATCCGTATTTGGA (site CTACTAACTTG)
- recombinant UMI read abundance (log10): 1.13

Sequence: CTACTAACATGGACCGGTTTTCCCGGTAATCCGTATTTGGA (site CTACTAACTTT)
- recombinant UMI read abundance (log10): 1.96

Sequence: CTACTAACATGGACCGGTTTTCCCGGTAATCCGTATTTGGA (site CTACTACCTTC)
- recombinant UMI read abundance (log10): 0.0182

Sequence: CTACTAACATGGACCGGTTTTCCCGGTAATCCGTATTTGGA (site CTACTAGCTTC)
- recombinant UMI read abundance (log10): 0.689

Sequence: CTACTAACATGGACCGGTTTTCCCGGTAATCCGTATTTGGA (site CTACTATCTTC)
- recombinant UMI read abundance (log10): 1.4

Sequence: CTACTAACATGGACCGGTTTTCCCGGTAATCCGTATTTGGA (site CTACTCACTTC)
- recombinant UMI read abundance (log10): 0.0167

Sequence: CTACTAACATGGACCGGTTTTCCCGGTAATCCGTATTTGGA (site CTACTGACTTC)
- recombinant UMI read abundance (log10): 0.00472
